In patent US9167822B2, “Antifungal compositions” (DSM IP ASSETS B.V., priority 2012, dated 2015):

Assays:
Botrytis cinerea = test: In vitro antifungal activity, 96-well microtiter plates; assay type: cell-based; conditions: 25° C., day 3, 1.25 ppm natamycin, 6.25 ppm isopyrazam or both
Experimental: Subsequently, 100 μl of a Botrytis cinerea suspension prepared in PCB medium was used to inoculated each well with 2.5×10^3 spores/ml. […] After incubation of the microtiter plates at 25° C., the in vitro antifungal activity (%) of the individual active ingredients was assessed by calculating the reduction in mould growth observed in the presence of the active ingredient in comparison to the mould growth observed in the absence of the active ingredient. The expected antifungal activity (E in %) of the active ingredient combination was calculated according to the Colby equation (Colby, 1967): […]

Penicillium italicum = test: as above; assay type: cell-based; conditions: 25° C., day 10, 0.63 ppm natamycin, 25 ppm isopyrazam or both
Experimental: Subsequently, 100 μl of a Botrytis cinerea suspension prepared in PCB medium was used to inoculated each well with 2.5×10^3 spores/ml.
After incubation of the microtiter plates at 25° C., the in vitro antifungal activity (%) of the individual active ingredients was assessed by calculating the reduction in mould growth observed in the presence of the active ingredient in comparison to the mould growth observed in the absence of the active ingredient. The expected antifungal activity (E in %) of the active ingredient combination was calculated according to the Colby equation (Colby, 1967): E=X+Y−[(X·Y)/100] wherein X and Y are the observed antifungal activities (in %) of the individual active ingredients X and Y, respectively. If the observed antifungal activity (O in %) of the combination exceeds the expected antifungal activity (E in %) of the combination and the resulting synergy factor O/E is thus >1.0, the combined application of the active ingredients leads to a synergistic antifungal effect.
Furthermore, Penicillium italicum was used for inoculation.

With CC(C)C1C2CCC1c1c(NC(=O)c3cn(C)nc3C(F)F)cccc12 (centres unmarked) [Isopyrazam, isopyrazam] the “Observed antifungal activity O (%)” value (Botrytis cinerea) was 0% and the “Observed antifungal activity O (%)” value (Penicillium italicum) was 50%.
